Source: the NIST ThermoML archive (doi:10.1016/j.jct.2015.09.010)
Numbers after ± are expanded uncertainties.

Settings: 298.15 K; 101.33 kPa; Liquid; Pycnometric method

| mass density [kg/m3] | SMILES |
| --- | --- |
| 777.1 ± 4.8 | CC#N [acetonitrile] |
| 806.1 ± 4.8 | CCCCO [butan-1-ol] |
| 785.3 ± 4.8 | CCO [ethanol] |
| 786.6 ± 4.8 | CO [methanol] |
| 799.7 ± 4.8 | CCCO [propan-1-ol] |
| 781.1 ± 4.8 | CC(C)O [propan-2-ol] |
